{
  "source": "paper PMC4243815",
  "about": "“A non-pediocin low molecular weight antimicrobial peptide produced by Pediococcus pentosaceus strain IE-3 shows increased activity under reducing environment” (BMC Microbiology, 2014)",
  "key": {"[1]": {"test": "Effect of pH on antimicrobial activity of the purified peptide", "assay_type": "physicochemical", "experimental": "(§1) The sensitivity of the bacteriocin towards different pH, temperatures and proteases was evaluated using purified bacteriocin. The purified peptide was incubated between pH values 2.0-10.0 and temperatures including 80, 100°C for 30 min and 120°C for 15 min. Antimicrobial peptide (200 μg) was incubated with various proteolytic enzymes such as trypsin (10 μg/ml, Sigma, USA), chymotrypsin (5 μg/ml, Sigma, USA) and proteinase K (5 units, Sigma, USA) in 100 mM Tris HCl buffer pH 8.0 (with 10 mM CaCl2) at 30°C for 6 h to determine their effect. The enzyme activity was terminated by heating the reaction mix at 80°C and subsequently used for antimicrobial activity assay. To test the effect of denaturant like DTT (BioRad, USA) on antimicrobial activity of the peptide, it was incubated with 50 to 150 mM DTT at room temperature for 1 h and used for growth inhibition assay. Hydrogen peroxide induced oxidation was tested by incubating the purified peptide with 100 mM concentration of hydrogen peroxide (Merck, India) for 1 h at room temperature [36] and activity was tested by well diffusion assay."}, "[2]": {"test": "Effect of DTT on antimicrobial activity of the purified peptide", "conditions": "1 h/RT, growth inhibition assay", "experimental": "as §1"}, "trypsin": {"test_system": "trypsin", "test": "Effect of proteolytic enzymes on antimicrobial activity", "conditions": "200 μg peptide; trypsin 10 μg/ml; 100 mM Tris HCl pH 8.0 with 10 mM CaCl2; 30°C, 6 h; read-out antimicrobial assay", "description": "The sensitivity of the bacteriocin towards different pH, temperatures and proteases was evaluated using purified bacteriocin. The purified peptide was incubated between pH values 2.0-10.0 and temperatures including 80, 100°C for 30 min and 120°C for 15 min. Antimicrobial peptide (200 μg) was incubated with various proteolytic enzymes such as trypsin (10 μg/ml, Sigma, USA), chymotrypsin (5 μg/ml, Sigma, USA) and proteinase K (5 units, Sigma, USA) in 100 mM Tris HCl buffer pH 8.0 (with 10 mM CaCl2) at 30°C for 6 h to determine their effect. The enzyme activity was terminated by heating the reaction mix at 80°C and subsequently used for antimicrobial activity assay. To test the effect of denaturant like DTT (BioRad, USA) on antimicrobial activity of the peptide, it was incubated with 50 to 150 mM DTT at room temperature for 1 h and used for growth inhibition assay. Hydrogen peroxide induced oxidation was tested by incubating the purified peptide with 100 mM concentration of hydrogen peroxide (Merck, India) for 1 h at room temperature and activity was tested by well diffusion assay."}, "proteinase K": {"target": "T1, proteinase K (Parengyodontium album, UniProt P06873)", "T1 construct": "purchased Sigma, USA", "T1 sequence (P06873 106-384)": "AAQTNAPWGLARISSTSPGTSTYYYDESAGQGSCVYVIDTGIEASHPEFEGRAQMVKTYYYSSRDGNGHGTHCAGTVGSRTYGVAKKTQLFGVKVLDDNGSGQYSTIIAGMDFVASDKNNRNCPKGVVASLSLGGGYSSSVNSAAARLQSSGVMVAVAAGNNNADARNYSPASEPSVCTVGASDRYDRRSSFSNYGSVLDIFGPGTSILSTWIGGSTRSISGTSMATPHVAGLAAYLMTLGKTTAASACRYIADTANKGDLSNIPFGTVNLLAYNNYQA", "test": "Effect of proteolytic enzymes on antimicrobial activity", "conditions": "200 μg peptide; proteinase K 5 units; 100 mM Tris HCl pH 8.0 with 10 mM CaCl2; 30°C, 6 h; read-out antimicrobial assay", "experimental": "as §1"}, "[3]": {"test": "Hydrogen peroxide induced oxidation, activity by well diffusion assay", "assay_type": "physicochemical", "conditions": "100 mM hydrogen peroxide, 1 h, room temperature", "experimental": "as §1"}, "[4]": {"test": "Storage stability of the purified peptide", "assay_type": "physicochemical"}, "M. luteus": {"test_system": "M. luteus", "assay_type": "cell-based, Micrococcus luteus", "conditions": "16 h", "description": "The MIC was determined for various indicator strains using a microtiter plate dilution assay as described earlier. Cell growth was measured by observing OD at 600 nm at 16 h time interval using microtiter plate reader (Multiskan spectrum, Thermo, USA). The protein concentration was determined by BCA protein concentration estimation kit (Thermo, USA) following instructions of the manufacturer. For MIC determination of DTT treated peptide, the DTT solution was filter sterilized and final 100 mM concentration was used to treat peptide."}, "amylase": {"test_system": "amylase", "test": "Effect of amylase treatment on antimicrobial activity"}, "[5]": {"test_system": "pepsin, trypsin, chymotrypsin, proteinase K and pronase E", "conditions": "cited from earlier work", "excerpt": "Bacteria produces different kinds of antimicrobial substances including ribosomally synthesized bacteriocins and non-ribosomally synthesized antibiotics or lipopeptides as a part of their defense strategies in complex environments such as fermented foods and the human gut. Members belonging to the lactic acid bacteria (LAB) family with ability to produce bacteriocins are frequently found in these environments. LAB strains are recognized as GRAS (Generally Regarded As Safe) microorganisms and have been studied in detail for biotechnological applications together with the bacteriocins prod ..."}},
  "note": "Ends that are not written are not given here. Peptide text beside a SMILES is read from it.",
  "data": [
    {"compound": "CC(C)C[C@H](NC(=O)[C@H](Cc1c[nH]cn1)NC(=O)[C@@H](NC(=O)[C@H](CC(C)C)NC(=O)[C@H](CS)NC(=O)CNC(=O)[C@H](CCCNC(=N)N)NC(=O)[C@@H](NC(=O)[C@H](CS)NC(=O)[C@H](CO)NC(=O)[C@H](Cc1ccccc1)NC(=O)[C@@H]1CCCN1C(=O)[C@@H](NC(=O)[C@@H]1CCCN1C(=O)[C@H](C)N)C(C)C)[C@@H](C)O)[C@@H](C)O)C(=O)N[C@H](C(=O)O)C(C)C", "note": "[LMW peptide] (H-APVPFSCTRGCLTHLV-OH; N-terminus and C-terminus assumed)", "values": [
      {"measurement": "Residual activity (%)", "setting": "[1]; pH 2, Overnight/ RT", "value": 100.0, "unit": "%"},
      {"measurement": "Residual activity (%)", "setting": "[1]; pH 3, Overnight/ RT", "value": 100.0, "unit": "%"},
      {"measurement": "Residual activity (%)", "setting": "[1]; pH 4, Overnight/ RT", "value": 100.0, "unit": "%"},
      {"measurement": "Residual activity (%)", "setting": "[1]; pH 5, Overnight/ RT", "value": 100.0, "unit": "%"},
      {"measurement": "Residual activity (%)", "setting": "[1]; pH 6, Overnight/ RT", "value": 87.5, "unit": "%"},
      {"measurement": "Residual activity (%)", "setting": "[1]; pH 7, Overnight/ RT", "value": 75.0, "unit": "%"},
      {"measurement": "Residual activity (%)", "setting": "[1]; pH 8, Overnight/ RT", "value": 37.5, "unit": "%"},
      {"measurement": "Residual activity (%)", "setting": "[1]; pH 9, Overnight/ RT", "value": 25.0, "unit": "%"},
      {"measurement": "Residual activity (%)", "setting": "[1]; pH 10, Overnight/ RT", "value": 12.5, "unit": "%"},
      {"measurement": "Residual activity (%)", "setting": "[2]; DTT 0 mM", "value": 100.0, "unit": "%"},
      {"measurement": "Residual activity (%)", "setting": "[2]; DTT 50 mM", "value": 125.0, "unit": "%"},
      {"measurement": "Residual activity (%)", "setting": "[2]; DTT 100 mM", "value": 143.7, "unit": "%"},
      {"measurement": "Residual activity (%)", "setting": "[2]; DTT 150 mM", "value": 143.7, "unit": "%"},
      {"measurement": "Antimicrobial activity after incubation with proteolytic enzyme", "setting": "trypsin", "value": "no reduction in activity"},
      {"measurement": "Antimicrobial activity after incubation with proteolytic enzyme", "setting": "proteinase K", "value": "no reduction in activity"},
      {"measurement": "Antimicrobial activity after incubation with H2O2", "setting": "[3]", "value": "did not show any antimicrobial activity"},
      {"measurement": "Antimicrobial activity during storage", "setting": "[4]; purified peptide stored at room temperature, within 24 h", "value": "significant reduction in antimicrobial activity"},
      {"measurement": "Antimicrobial activity during storage", "setting": "[4]; purified peptide stored at −20°C", "value": "stable"},
      {"measurement": "MIC", "setting": "M. luteus", "value": 6.3, "unit": "µM"},
      {"measurement": "Antimicrobial activity upon treatment with amylase", "setting": "amylase", "value": "Stable activity"}
    ]},
    {"compound": "pediocin PA-1: well-studied 4.6 kDa class IIa antimicrobial peptide (bacteriocin) from Pediococcus sp. (KYYGNGVTCGKHSCSVDWGKATTCIINNGAMAWATGGHQGNHKC; ends and bridges not checked; cysteine pairing not given here; UniProt P29430 19-62, looked up)", "values": [
      {"measurement": "Effect of proteases on activity", "setting": "[5]", "value": "inactivated"}
    ]}
  ]
}
